Test systems include 786-0; CCRF-CEM; DU-145; HCT-15; HL-60; HOP-62; HOP-92; HT-29; MDA-MB-231; MDA-N; NCI-H23; NCI/ADR-RES; OVCAR-3; RPMI-8226; SF-268; SF-295; SN12C; SNB-19; SW-620; UO-31.
Test in all cases: inhibition of tumour cell growth, NCI panel, 48 h

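Values below derive from 48-hour exposures of cells grown in 96-well plates, with endpoints linearly interpolated between the two concentrations bracketing the appropriate inhibition level. GI50: concentration for 50% inhibition of growth.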 Calls of active or inactive are those of the source. No stated cut-off is given here; in the data, active = GI50 up to about 1.1 µM and inactive = higher. A value given as a limit tells only on which side of the number the result lay.

For `CCCCCCCCCCCC[C@H](O)[C@H]1CC[C@H]([C@H](O)CCCC[C@H](O)CCCCC[C@@H](O)CC2=C[C@H](C)OC2=O)O1`, the GI50 with 786-0 was 5.01 µM (inactive); with CCRF-CEM, 1.71 µM (inactive); in the experiment with DU-145, 9.42 µM (inactive); with HCT-15 it was 5.56 µM; with HL-60, 2.15 µM (inactive); in the experiment on HOP-62 it was 6.3 µM (inactive). In addition, the GI50 with HOP-92 is 4.03 µM (inactive); in the experiment with HT-29, 2.82 µM (inactive); in the experiment with MDA-MB-231, 1.88 µM (inactive); in the experiment with MDA-N it was 2.37 µM (inactive); in the experiment on NCI-H23, 0.00415 µM (active); in the experiment with NCI/ADR-RES, 1.61 µM (inactive). Also, the GI50 in the experiment with OVCAR-3 is 2.19 µM (inactive); in the experiment with RPMI-8226, > 10 µM (inactive); in the experiment on SF-268, 3.33 µM (inactive); in the experiment on SF-295 it was 1.63 µM (inactive); in the experiment on SN12C, 5.83 µM (inactive); in the experiment on SNB-19, 1.13 µM (inactive). For the same molecule, the GI50 in the experiment on SW-620 was 2.75 µM (inactive); in the experiment with UO-31 it was 1.5 µM (inactive).

Regarding `COc1ccc(C(C)NNC(=O)c2ccncc2)cc1F` (stereo not given), the GI50 is > 100 µM (inactive) in the experiment on 786-0; > 100 µM (inactive) in the experiment on CCRF-CEM; > 100 µM (inactive) in the experiment with DU-145; greater than 100 µM in the experiment with HCT-15; > 100 µM (inactive) in the experiment with HL-60; > 100 µM (inactive) in the experiment on HOP-62. For the same molecule, the GI50 with HOP-92, in the experiment with HT-29, in the experiment with MDA-MB-231, in the experiment on MDA-N, in the experiment with NCI-H23 and with NCI/ADR-RES was > 100 µM (inactive) in each case. Further, the GI50 in the experiment on OVCAR-3, with RPMI-8226, in the experiment with SF-268, with SF-295, in the experiment on SN12C and in the experiment with SNB-19 was > 100 µM (inactive) in each case. Also, the GI50 in the experiment on SW-620 and with UO-31 was > 100 µM (inactive) each time.

`CC(=O)Oc1ccc(N2C(=O)C3c4[nH]c5ccccc5c4C4CCC(C(C)(C)C)CC4C3C2=O)cc1` (stereo not given): the GI50 in the experiment with 786-0 was 2.1 µM (inactive); with CCRF-CEM it was 10 µM (inactive); in the experiment on DU-145 it was 3.7 µM (inactive); in the experiment with HCT-15, 4.07 µM; in the experiment with HL-60, 2.21 µM (inactive); in the experiment on HOP-62, 3.79 µM (inactive). Moreover, the GI50 with HOP-92 is 3.03 µM (inactive); in the experiment on HT-29, 3.3 µM (inactive); in the experiment on MDA-MB-231 it was 2.28 µM (inactive); in the experiment with MDA-N, 4.67 µM (inactive); with NCI-H23 it was 3.56 µM (inactive); in the experiment on NCI/ADR-RES, 3.56 µM (inactive). Moreover, the GI50 was 2.69 µM (inactive) with OVCAR-3; 6.68 µM (inactive) in the experiment with RPMI-8226; 3.34 µM (inactive) with SF-268; 4.37 µM (inactive) in the experiment with SF-295; 2.14 µM (inactive) with SN12C; 3.08 µM (inactive) in the experiment with SNB-19. Moreover, the GI50 in the experiment with SW-620 was 2.51 µM (inactive); with UO-31 it was 5.35 µM (inactive).

For `CC(=O)O[C@H]1CC[C@@]2(C)C(=CC[C@H]3[C@@H]4C/C(=C\c5ccncc5)[C@H](OC(C)=O)[C@@]4(C)CC[C@@H]32)C1`, the GI50 in the experiment with 786-0 was 11.3 µM (inactive); in the experiment on CCRF-CEM, 3.35 µM (inactive); in the experiment on DU-145, 15.4 µM (inactive); in the experiment with HCT-15, 3.45 µM; in the experiment on HL-60 it was 4.01 µM (inactive); in the experiment on HOP-62, 4.54 µM (inactive). The GI50 in the experiment on HOP-92 is 3.48 µM (inactive); in the experiment with HT-29, 6.41 µM (inactive); with MDA-MB-231, 19.1 µM (inactive); in the experiment with MDA-N it was 18.3 µM (inactive); in the experiment on NCI-H23, 4.56 µM (inactive); with NCI/ADR-RES, 4.34 µM (inactive). Moreover, the GI50 is 11.3 µM (inactive) with OVCAR-3; 2.46 µM (inactive) in the experiment on RPMI-8226; 10.9 µM (inactive) in the experiment with SF-268; 5.02 µM (inactive) in the experiment with SF-295; 16.9 µM (inactive) in the experiment with SN12C; 8.61 µM (inactive) in the experiment with SNB-19. Moreover, the GI50 in the experiment with SW-620 is 4.14 µM (inactive); in the experiment on UO-31, 8.04 µM (inactive).

With `CCN(CC)CCC(=O)c1ccc(Oc2ccc(Cl)cc2)cc1`, the GI50 with 786-0 was 14.9 µM (inactive); in the experiment on CCRF-CEM, 19.5 µM (inactive); with DU-145 it was 21.6 µM (inactive); in the experiment with HCT-15, 18.4 µM; in the experiment on HL-60, 21.1 µM (inactive); in the experiment with HOP-62, 11.8 µM (inactive). The GI50 in the experiment on HOP-92 is 16.2 µM (inactive); with HT-29, 21.2 µM (inactive); in the experiment on MDA-MB-231 it was 14.5 µM (inactive); in the experiment with MDA-N, 16.1 µM (inactive); in the experiment on NCI-H23 it was 17.2 µM (inactive); with NCI/ADR-RES, 22.3 µM (inactive). In addition, the GI50 in the experiment on OVCAR-3 is 15.3 µM (inactive); in the experiment on RPMI-8226, 3.82 µM (inactive); with SF-268, 16.7 µM (inactive); with SF-295 it was 18.4 µM (inactive); in the experiment with SN12C, 17.4 µM (inactive); in the experiment with SNB-19, 30 µM (inactive). For the same molecule, the GI50 in the experiment on SW-620 is 22 µM (inactive); with UO-31, 18 µM (inactive).

Consider `CSc1cccc(NC(=O)OC2CCCCCCCCCCC2)c1`, for which the GI50 in the experiment with 786-0 was 20.9 µM (inactive); with CCRF-CEM it was 16.4 µM (inactive); with DU-145 it was 31.8 µM (inactive); in the experiment with HCT-15, 28.8 µM; with HL-60 it was 14.3 µM (inactive); in the experiment on HOP-62, 18.8 µM (inactive). Moreover, the GI50 was 27.4 µM (inactive) in the experiment on HOP-92; 16.6 µM (inactive) in the experiment with HT-29; 23.6 µM (inactive) with MDA-MB-231; 21 µM (inactive) with MDA-N; 24.4 µM (inactive) with NCI-H23; 21.4 µM (inactive) in the experiment with NCI/ADR-RES. The GI50 is 10.5 µM (inactive) in the experiment on OVCAR-3; 14.7 µM (inactive) in the experiment with RPMI-8226; 29.8 µM (inactive) in the experiment on SF-268; 11.9 µM (inactive) in the experiment on SF-295; 15.5 µM (inactive) with SN12C; 37.5 µM (inactive) in the experiment on SNB-19. Moreover, the GI50 is 18.8 µM (inactive) with SW-620 and 7.91 µM (inactive) in the experiment with UO-31.

Turning to `CC1=C(C(=O)N(C(C)C)C(C)C)CC(C(=O)N(C(C)C)C(C)C)=C(C)N1`, the GI50 was > 100 µM (inactive) with 786-0; > 100 µM (inactive) with CCRF-CEM; > 100 µM (inactive) with DU-145; greater than 100 µM in the experiment on HCT-15; > 100 µM (inactive) in the experiment with HL-60; > 100 µM (inactive) in the experiment with HOP-62. The GI50 with HOP-92 was > 100 µM (inactive); in the experiment with HT-29, > 100 µM (inactive); in the experiment on MDA-MB-231 it was 54.1 µM (inactive); in the experiment on MDA-N it was > 100 µM (inactive); in the experiment with NCI-H23, > 100 µM (inactive); in the experiment with NCI/ADR-RES, > 100 µM (inactive). The GI50 in the experiment on OVCAR-3, with RPMI-8226, in the experiment with SF-268, in the experiment with SF-295, in the experiment on SN12C and in the experiment with SNB-19 was > 100 µM (inactive) each time. Besides, the GI50 in the experiment on SW-620 and in the experiment with UO-31 was > 100 µM (inactive) each time.

`C/C(Cl)=N\OC(=O)Nc1ccc([N+](=O)[O-])cc1`: the GI50 in the experiment on 786-0 is 5.92 µM (inactive); in the experiment with CCRF-CEM, 2.77 µM (inactive); with DU-145, 17.6 µM (inactive); in the experiment on HCT-15, 14.1 µM; in the experiment with HL-60, 1.82 µM (inactive); in the experiment with HOP-62, > 100 µM (inactive). For the same molecule, the GI50 is 2.59 µM (inactive) in the experiment on HOP-92; 9.71 µM (inactive) with HT-29; 18.7 µM (inactive) in the experiment on MDA-MB-231; 10.8 µM (inactive) in the experiment with MDA-N; 21.5 µM (inactive) in the experiment on NCI-H23; 17.6 µM (inactive) in the experiment with NCI/ADR-RES. The GI50 in the experiment with OVCAR-3 is 2.12 µM (inactive); in the experiment on RPMI-8226, 2.36 µM (inactive); in the experiment with SF-268, 21 µM (inactive); in the experiment on SF-295, 16.8 µM (inactive); in the experiment with SN12C it was 12.4 µM (inactive); in the experiment on SNB-19, 17.5 µM (inactive). Further, the GI50 is 2 µM (inactive) with SW-620 and 5.6 µM (inactive) with UO-31.

On to `CCOC(=O)OC1C(Br)C2CCC1(C)C2(C)C` (stereo not given), for which the GI50 is 14.1 µM (inactive) with 786-0; 4.88 µM (inactive) in the experiment with CCRF-CEM; 18.7 µM (inactive) in the experiment on DU-145; 13.7 µM in the experiment with HCT-15; 6.21 µM (inactive) in the experiment on HL-60; 16.6 µM (inactive) with HOP-62. In addition, the GI50 in the experiment with HOP-92 is 13.2 µM (inactive); with HT-29 it was 6.05 µM (inactive); with MDA-MB-231, 11.9 µM (inactive); with MDA-N, 15 µM (inactive); in the experiment on NCI-H23, 17.2 µM (inactive); in the experiment with NCI/ADR-RES, 15.5 µM (inactive). Moreover, the GI50 is 14.7 µM (inactive) in the experiment on OVCAR-3; 5.46 µM (inactive) in the experiment with RPMI-8226; 13.7 µM (inactive) in the experiment with SF-268; 15.3 µM (inactive) with SF-295; 14.4 µM (inactive) in the experiment with SN12C; 14.6 µM (inactive) in the experiment on SNB-19. Besides, the GI50 in the experiment on SW-620 was 16.1 µM (inactive); with UO-31, 12 µM (inactive).

With `COC(=O)C1=C(C)NC(C)=C(C(=O)OC)C1c1cccc(/[N+]([O-])=C/c2ccccc2)c1`, the GI50 in the experiment on 786-0 was 17.7 µM (inactive); in the experiment on CCRF-CEM, 11 µM (inactive); in the experiment with DU-145, 78 µM (inactive); in the experiment on HCT-15, 17.1 µM; in the experiment on HL-60 it was 15.3 µM (inactive); with HOP-62 it was > 100 µM (inactive). For the same molecule, the GI50 in the experiment on HOP-92 is 23.4 µM (inactive); in the experiment on HT-29, 28.3 µM (inactive); in the experiment on MDA-MB-231, 17.5 µM (inactive); with MDA-N it was 17.6 µM (inactive); in the experiment on NCI-H23 it was 33.3 µM (inactive); in the experiment with NCI/ADR-RES, 23.2 µM (inactive). Further, the GI50 with OVCAR-3 is 17.4 µM (inactive); with RPMI-8226, 24.4 µM (inactive); in the experiment on SF-268, 69.5 µM (inactive); in the experiment with SF-295 it was > 100 µM (inactive); in the experiment with SN12C, > 10 µM (inactive); in the experiment on SNB-19, > 100 µM (inactive). The GI50 with SW-620 is 21.3 µM (inactive); in the experiment on UO-31 it was 34.2 µM (inactive).
